From US20080312271A1, “AZABENZIMIDAZOLYL COMPOUNDS” (Pfizer Inc., priority 2006, published 2008)
Read-outs that look alike come from different tables or passages of the source.

Biological target: T1, mGluR2 receptor (metabotropic glutamate receptor 2) (Homo sapiens, UniProt Q14416)
T1 construct: expressed in transfected cells
Test: mGluR2 Potentiator Screen, FLIPR, EC10-EC20 glutamate challenge
Assay type: cell-based
Summary of the method: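 Potentiator assay in HEK cells stably expressing mGluR2 with Gα15, glutamine-depleted overnight, loaded with Fluo-4 plus probenecid and GPT/pyruvate to remove glutamate. Peak fluorescence ratio curve-fitted, with maximum set by on-plate standards.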

[1] = mGluR2 potentiator screen, FLIPR, EC10-EC20 glutamate challenge

T1 sequence (Q14416 19-872, species assumed): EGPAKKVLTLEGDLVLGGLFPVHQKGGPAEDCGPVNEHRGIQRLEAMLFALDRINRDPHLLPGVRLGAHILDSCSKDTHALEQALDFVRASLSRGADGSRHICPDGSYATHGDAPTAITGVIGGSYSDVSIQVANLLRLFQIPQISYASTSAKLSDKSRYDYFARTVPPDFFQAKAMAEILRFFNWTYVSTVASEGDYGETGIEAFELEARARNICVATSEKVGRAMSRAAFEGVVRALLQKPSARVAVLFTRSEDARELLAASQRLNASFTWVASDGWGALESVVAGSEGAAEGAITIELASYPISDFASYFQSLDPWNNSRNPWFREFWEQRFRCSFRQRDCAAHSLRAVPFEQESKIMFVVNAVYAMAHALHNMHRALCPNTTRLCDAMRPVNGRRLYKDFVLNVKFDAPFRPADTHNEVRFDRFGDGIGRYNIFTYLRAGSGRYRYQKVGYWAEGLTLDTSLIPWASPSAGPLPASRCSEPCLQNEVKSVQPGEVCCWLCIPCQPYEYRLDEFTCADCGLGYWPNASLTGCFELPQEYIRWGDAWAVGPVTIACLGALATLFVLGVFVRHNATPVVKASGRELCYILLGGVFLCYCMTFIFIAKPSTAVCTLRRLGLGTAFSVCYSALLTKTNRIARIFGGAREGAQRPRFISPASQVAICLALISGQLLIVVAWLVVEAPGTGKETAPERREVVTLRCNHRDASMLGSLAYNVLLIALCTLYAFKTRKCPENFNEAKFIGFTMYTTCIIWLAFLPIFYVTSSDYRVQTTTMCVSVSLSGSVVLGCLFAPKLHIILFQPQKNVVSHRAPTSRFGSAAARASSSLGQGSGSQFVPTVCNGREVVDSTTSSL

SMILES | EC50 | EC50 [1]
Cn1c(CN2CCC(c3ccc(F)cc3F)CC2)nc2ncccc21 [compound 82] | 251 nM | 
Cn1c(CN2CCC(c3ccc(F)cc3F)CC2)nc2cnccc21 [compound 84] | 218 nM | 
Cn1c(CN2CCC(c3ccc(F)cc3F)CC2)nc2cccnc21 [compound 85] | 199 nM | 
Cn1c(CN2CCC(c3ccc(C(F)(F)F)cc3)C(O)C2)nc2ncccc21 (stereo not drawn) [compound 86] | > 2750 nM | 
COc1cc(F)ccc1C1CCN(Cc2nc3ncccc3n2C)CC1 [compound 87] | 212 nM | 
COc1cc(F)ccc1C1CCN(Cc2nc3cnccc3n2C)CC1 [compound 88] | 372 nM | 
Cc1ccccc1C1CCN(Cc2nc3ncccc3n2C)CC1 [compound 89] | 823 nM | 
Cn1c(CN2CCC(c3cc(F)cc(F)c3)CC2)nc2ncccc21 [compound 91] | 985 nM | 
COc1ccc(C2CCN(Cc3nc4ncccc4n3C)CC2)cc1F [compound 92] | 2800 nM | 
Cn1c(CN2CCC(c3ccc(C(F)(F)F)cc3)CC2)nc2ccncc21 [compound 93] | 196 nM | 
CCOc1ccc(C2CCN(Cc3nc4ncccc4n3C)CC2)cc1 [compound 98] | 2270 nM | 
Cn1c(CN2CCC(F)(c3ccc(C(F)(F)F)cc3)CC2)nc2ncccc21 [compound 99] | 434 nM | 
Cn1c(CN2CCC(c3ccc(C(F)(F)F)cc3)C(F)C2)nc2ncccc21 (stereo not drawn) [compound 100] | 315 nM | 
Cn1c(CN2CCC(c3ccc(F)c(Cl)c3)CC2)nc2ncccc21 [compound 101] | 313 nM | 
Cn1c(CN2CCC(c3ccc(F)c(Cl)c3)CC2)nc2cnccc21 [compound 102] | 482 nM | 
Cn1c(CN2CCC(c3ccc(F)c(Cl)c3)CC2)nc2cccnc21 [compound 103] | 367 nM | 
Cc1ccc(C2CCN(Cc3nc4ncccc4n3C)CC2)cc1 [compound 104] | 710 nM | 
Cc1cc(NC(=O)c2cccc(C3CCN(Cc4nc5ncccc5n4C)CC3)c2)n[nH]1 [compound 105] | 3660 nM | 
Cn1c(CN2CCC(c3ccc(Cl)c(F)c3)CC2)nc2ncccc21 [compound 106] | 190 nM | 
Cn1c(CN2CCC(c3ccc(Cl)c(F)c3)CC2)nc2cnccc21 [compound 107] | 315 nM | 
Cn1c(CN2CCC(c3cccc(F)c3F)CC2)nc2ncccc21 [compound 108] | 307 nM | 
Cn1c(CN2CCC(c3ccc(Cl)c(F)c3)CC2)nc2cccnc21 [compound 109] | 378 nM | 
Cn1c(CN2CCC(c3ccc(Cl)cc3F)CC2)nc2ncccc21 [compound 110] | 27.1 nM | 
Cn1c(CN2CCC(c3ccc(Cl)cc3F)CC2)nc2cccnc21 [compound 112] | 58.5 nM | 
Cn1c(CN2CCC(c3ccc(Cl)cc3F)CC2)nc2cnccc21 [compound 113] | 81 nM | 
C[C@H]1CN(Cc2nc3ncccc3n2C)CC[C@H]1c1ccc(Cl)cc1F [compound 123] | > 1810 nM | 
Cn1c(CN2CCC(c3c(F)cccc3C(F)(F)F)CC2)nc2cnccc21 [compound 228] | > 458 nM | 

SMILES | EC50 | EC50 [1]
Cn1c(CN2CCC(c3c(F)cccc3C(F)(F)F)CC2)nc2ncccc21 [compound 229] |  | 212 nM
Cn1c(CN2CCC(c3ccc(OC(F)(F)F)cc3)CC2)nc2ncccc21 [compound 231] |  | 84.5 nM
Cn1c(CN2CCC(c3ccc(C(F)(F)F)cc3F)CC2)nc2cnccc21 [compound 236] |  | 50.8 nM
Cn1c(CN2CCC(c3ccc(OC(F)(F)F)cc3)CC2)nc2cnccc21 [compound 237] |  | 160 nM
Cc1cc(OC(F)(F)F)ccc1C1CCN(Cc2nc3cnccc3n2C)CC1 [compound 240] |  | 96.8 nM
Cc1cc(OC(F)(F)F)ccc1C1CCN(Cc2nc3ncccc3n2C)CC1 [compound 241] |  | 50.7 nM
Cc1cc(C(F)(F)F)ccc1C1CCN(Cc2nc3cnccc3n2C)CC1 [compound 242] |  | 85.8 nM
Cc1cc(C(F)(F)F)ccc1C1CCN(Cc2nc3ncccc3n2C)CC1 [compound 243] |  | 51.1 nM
CC(C)Oc1ccc(C2CCN(Cc3nc4cnccc4n3C)CC2)c(F)c1 [compound 261] |  | 125 nM
CC(C)Oc1ccc(C2CCN(Cc3nc4ncccc4n3C)CC2)c(F)c1 [compound 262] |  | 127 nM
Cn1c(CN2CCC(c3ccc(OC(F)F)cc3)CC2)nc2cnccc21 [compound 263] |  | 906 nM
Cn1c(CN2CCC(c3ccc(OC(F)F)cc3)CC2)nc2ncccc21 [compound 264] |  | 554 nM
Cn1c(CN2CCC(c3ccc(OC(F)F)cc3Cl)CC2)nc2cnccc21 [compound 265] |  | 164 nM
Cn1c(CN2CCC(c3ccc(OC(F)F)cc3Cl)CC2)nc2ncccc21 [compound 266] |  | 54.9 nM
CC(C)Oc1ccc(C2CCN(Cc3nc4cnccc4n3C)CC2)c(Cl)c1 [compound 267] |  | 85.5 nM
Cn1c(CN2CCC(c3ccc(C(F)(F)F)cc3F)CC2)nc2ncccc21 [compound 268] |  | 12.7 nM
CC(C)Oc1ccc(C2CCN(Cc3nc4ncccc4n3C)CC2)c(Cl)c1 [compound 269] |  | 65.7 nM
COc1ccc(C2CCN(Cc3nc4cnccc4n3C)CC2)c(C(F)(F)F)c1 [compound 270] |  | 494 nM
COc1ccc(C2CCN(Cc3nc4ncccc4n3C)CC2)c(C(F)(F)F)c1 [compound 271] |  | 494 nM
Cn1c(CN2CCC(c3ccc(C(F)(F)F)cc3Cl)CC2)nc2ncccc21 [compound 272] |  | 24.1 nM
Cn1c(CN2CCC(c3ccc(C(F)(F)F)cc3Cl)CC2)nc2cnccc21 [compound 273] |  | 85 nM
Cc1cc(C2CCN(Cc3nc4cnccc4n3C)CC2)ccc1C(F)(F)F [compound 276] |  | 88.5 nM
Cc1cc(C2CCN(Cc3nc4ncccc4n3C)CC2)ccc1C(F)(F)F [compound 277] |  | 60.5 nM
COc1cc(C2CCN(Cc3nc4cnccc4n3C)CC2)ccc1C(F)(F)F [compound 278] |  | 245 nM
COc1cc(C2CCN(Cc3nc4ncccc4n3C)CC2)ccc1C(F)(F)F [compound 279] |  | 289 nM
COc1cc(OC(F)(F)F)ccc1C1CCN(Cc2nc3cnccc3n2C)CC1 [compound 280] |  | 33.9 nM
COc1cc(OC(F)(F)F)ccc1C1CCN(Cc2nc3ncccc3n2C)CC1 [compound 281] |  | 99.7 nM
